Patent publication US20190142835A1, “INHIBITION OF AUTOPHAGY USING PHOSPHOLIPASE A2 INHIBITORS” (OREGON HEALTH & SCIENCE UNIVERSITY, priority 2017, published 2019)

Key:
[1] = test system: human RCC and MPN cell lines; assay: Growth effect of treatment in RCC and MPN cell lines; format: cell-based; conditions: multiple human RCC and MPN cell lines
glycolysis = assay: Glucose uptake and lactate excretion as readouts for glycolysis; format: cell-based, human; conditions: in vitro
From the text: The PI3K-AKT-mTOR pathway regulates multiple steps in glucose uptake and metabolism.

[2] = test system: Atg5+/+ murine embryonic fibroblasts; assay: Lipid droplet number in Atg5+/+ MEFs; format: cell-based, mouse; conditions: 24 hr
Experimental: (§1) Cells were grown on coverslips then treated with drug for 24 hours. Cells were fixed in 4% paraformaldehyde for 15 min, rinsed with PBS. Cells were washed with a 1% saponin solution for 15 min at room temperature then washed several times in PBS to remove detergent. Cells were then incubated in Bodipy (ThermoFisher #D3922) at a final concentration of 1 uM for 10 min. Bodipy was removed and slides were rinsed with PBS then air dried and mounted on slides using Dako mounting media with Dapi.

[3] = test system: human RCC and MPN cell lines; assay: Suppression of JAK and STAT3 phosphorylation; format: cell-based; conditions: multiple human RCC and MPN cell lines
Experimental: Cells were plated in 6 well dishes and treated the following day with the indicated agents. Treatments were for 24 hours, after which cells were washed with ice cold PBS and lysed with RIPA buffer (Sigma). Phosphatase inhibitor cocktail set II and protease inhibitor cocktail set III (EMD Millipore) were added at the time of lysis. Lysates were centrifuged at 15,000 g×10 min at 4 degrees C. Protein concentrations were calculated based on a BCA assay (Thermo Scientific) generated standard curve. Proteins were resolved using the NuPAGE Novex Mini Gel system on 4% to 12% Bis-Tris Gels (Invitrogen). For western blotting, equal amounts of cell lysates (15-20 μg of protein) were resolved with SDSPAGE, and transferred to membranes. The membrane was probed with primary antibodies, washed, and then incubated with corresponding fluorescent secondary antibodies and washed. The fluorescent signal was captured using LI-COR (Lincoln, Nebr.) Odyssey Imaging System, and fluorescent intensity was quantified using the Odyssey software where indicated. The following antibodies were used for Western blots: p-S6 (S240/244), S6, LC3B, p-Akt(S473), p-Akt(T308), Akt, cleaved caspase3 (Cell Signaling Technologies). p-Stat3 (Y705), Stat3 and β-actin (AC15) (Abcam). Ki67 (Dako) and cleaved caspase3 (Cell Signaling Technologies) were used for immunohistochemistry. […] BX795 and GDC0941 were purchased from Sigma.

ACHN cells [4] = assay: Apoptosis (Caspase 3/7-Glo), ACHN; format: cell-based, human; conditions: ACHN, 72 h
Experimental: Apoptosis was determined using Caspase 3/7-Glo assay kit (Promega) following the manufacturer's instructions. Briefly, 2000 cells per well were plated in 96 well plates and cultured for 72 h. […] Caspase 3/7 activity was measured using a luminometer. Luminescence values were normalized by cell numbers.

ACHN cells [5] = assay: High content imaging screen of 116 small molecule inhibitors for p62 and pS6; format: cell-based, human; conditions: HCI screen, 72 hr
From the text: We used a metastatic human RCC cell line, ACHN. Small molecule inhibitors have been extensively used in RCC over the last decade. […] Importantly, p62 is an autophagy substrate that is degraded along with its cargo, and so is expected to decrease with induction of autophagy. Therefore, we monitored p62 steady-state levels as an initial screen of autophagy flux. Next, we combined the measurement of the p62 with a measurement of mTORC1 activity an independent readout to evaluate autophagy. mTORC1 plays the central role in the anabolic process by increasing protein content through ribosomal biogenesis and elongation of protein translation. Specifically, mTORC1 induces mRNA translation by inducing the activation of p70S6 kinase and the subsequent phosphorylation of the S6 ribosomal protein. To ensure increased cellular biomass, mTORC1 downregulates autophagy. We chose the phosphorylation status of the downstream target of mTORC1 signaling, ribosomal S6 (hereafter S6) as a readout for mTORC1 activity.
To provide a straightforward method for detecting the induction of autophagy, we monitored ACHN cells for small molecule inhibitors which decreased the antibody labelled levels of p62 protein and pS6 phosphorylation (see methods below for detailed experiment procedure). To that end, automated high content imaging (HCl) microscopy was used to detect induction of autophagy as documented by the […] by p62 protein expression and mTORC1 inhibition by the decrease in S6 phosphorylation. The HCl assay was optimized for 384-well plate screening. Drug screening plates were designed and created as previously described.
A 7-point dilution series of 116 small molecule inhibitors covering a 1000× concentration range were plated into three, 384-well plates using the EP Motion automated dispensing system. Control wells with equal volumes of DMSO were included as negative controls. ACHN cells were grown, trypsinized counted, and plated directly into warm drug plates using Multidrop combi dispenser. Plates were incubated for 72 hr and subsequently imaged on the Olympus ScanR Platform at 10× magnification performing 4 images per well in 384 well plates. Single-cell nuclear and cytoplasmic fluorescent intensities were calculated using the Olympus ScanR Analysis Software: the DAPI-positive region of each cell was used as a boundary to quantitate nuclei counts for analysis of cell growth and integrated nuclear DNA staining intensity was used for cell cycle analysis. A 10-pixel extension of the nuclear region (and not including the nuclear region) was used to quantitate cytoplasmic signal of immunofluorescent staining of p62 protein and phosphorylation of S6. Mean signal intensity of each marker in all cells per well was used as the metric for cytoplasmic marker expression (average intensity of pS6 and p62). Unsupervised hierarchical clustering was used to identify compounds that produced similar pS6 and p62 dose response phenotypes after treatment.

[6] = test system: Atg5−/− murine embryonic fibroblasts; assay: Lipid droplet number in Atg5−/− MEFs; format: cell-based, mouse; conditions: ATG5 deficient, 24 hr
Experimental: as §1

N#CCNC(=O)c1ccc(-c2ccnc(Nc3ccc(N4CCOCC4)cc3)n2)cc1 [CYT387]
effect of treatment on cell growth [1]: primarily cytostatic
glucose uptake (glycolysis; 18FDG): significantly decreased glucose uptake
lactate production (glycolysis; culture media): reduced lactate production
LD numbers [2]: significantly increase LD numbers
phosphorylation of JAK and STAT3 [3]: effective in suppressing the phosphorylation of JAK and STAT3
apoptosis (cleaved-caspase 3/7) (ACHN cells [4]): little or no effect on apoptosis
S6 phosphorylation (ACHN cells [5]): potently inhibited S6 phosphorylation
induction of autophagy / autophagic flux (ACHN cells [5]): potent inducers of autophagic flux
lipid droplets [6]: no increase in lipid droplets
